Three molecules from ChEMBL document CHEMBL4190229, “Growth Inhibition of Colon Cancer and Melanoma Cells by Versiol Derivatives from a Paraconiothyrium Species” (J Nat Prod, 2017) can be followed below.

One assay relates to COLO 205. Put plainly: Antiproliferative activity against human COLO205 cells after 48 hrs by XTT assay. As to conditions: COLO 205, 48 h.
The test system of a further assay is KM12. The assay is described as follows: Antiproliferative activity against human KM12 cells after 48 hrs by XTT assay. The note with it: KM12, 48 h.
In assay [1] the test system is Panel NCI-60 (60 carcinoma cell lines). The assay is described as follows: Antiproliferative activity against human NCI60 cells at 10 uM after 48 hrs by sulforhodamine B assay relative to control. The format is functional.
Assay [2] has the same test system. Put plainly: Antiproliferative activity against human NCI60 cells after 48 hrs by sulforhodamine B assay. The assay is classed as functional, cell-based.

Some results are limits rather than exact numbers.

In the case of `CC(=O)CC/C=C(\C)[C@H](O)[C@H](C)C(=O)O[C@H]1C[C@H](C)C=C2C=C[C@@]3(C)O[C@@H](O)CC(=O)[C@]3(C)[C@H]21`, the IC50 with COLO 205 and in the assay on KM12 was less than 1.25 µM in each case. Also, the Activity is -34% in assay [1] and “Dose-dependent effect” in assay [2].

Regarding `C/C(=C\C=C\[C@H](C)CC(=O)O)[C@H](O)[C@H](C)C(=O)O[C@H]1C[C@@H](C)[C@@H](O)c2ccc(C)c(C)c21`, the IC50 in the assay on COLO 205 came out at 12.5 µM; in the assay with KM12 it was 6.5 µM. Moreover, the Activity in assay [1] was determined as 89%.

For the molecule `CC(/C=C/C=C(\C)[C@H](O)[C@H](C)C(=O)O[C@H]1C[C@H](C)C=C2C=C[C@@]3(C)O[C@@H](O)CC(=O)[C@]3(C)[C@H]21)=C\C=C\C(=O)O`, the IC50 with COLO 205 and in the assay with KM12 was less than 1.25 µM in each case. Moreover, the Activity in assay [1] is -3%.
